Several values for one entry are separate records, joined by “and”; a condition that tells them apart may be missing. Equal entries are not always repeated. Where two headings read alike, the source gives them in different places. Blank lines part the entries; values can stand above or below the compound they belong to.
Key:
Type in all cases: biochemical
2E1 = 2E1 (Homo sapiens, UniProt P05181); conditions: 25 μM; 15 min pre-incubation at 37 °C in the presence of 1 mM NADPH; positive control
[1] = biological target: human cytochrome P450_2E1 (Homo sapiens, UniProt P05181); experiment: Inhibition of P450 2E1; conditions: for Ki: KI for inhibition of 2E1, competitive model, p-nitrophenol substrate; for fold difference in 2E1 KI, branched versus linear 10-carbon aldehyde: decanal vs citronellal, decenal vs citral
Sequence of human cytochrome P450_2E1 (P05181 whole entry): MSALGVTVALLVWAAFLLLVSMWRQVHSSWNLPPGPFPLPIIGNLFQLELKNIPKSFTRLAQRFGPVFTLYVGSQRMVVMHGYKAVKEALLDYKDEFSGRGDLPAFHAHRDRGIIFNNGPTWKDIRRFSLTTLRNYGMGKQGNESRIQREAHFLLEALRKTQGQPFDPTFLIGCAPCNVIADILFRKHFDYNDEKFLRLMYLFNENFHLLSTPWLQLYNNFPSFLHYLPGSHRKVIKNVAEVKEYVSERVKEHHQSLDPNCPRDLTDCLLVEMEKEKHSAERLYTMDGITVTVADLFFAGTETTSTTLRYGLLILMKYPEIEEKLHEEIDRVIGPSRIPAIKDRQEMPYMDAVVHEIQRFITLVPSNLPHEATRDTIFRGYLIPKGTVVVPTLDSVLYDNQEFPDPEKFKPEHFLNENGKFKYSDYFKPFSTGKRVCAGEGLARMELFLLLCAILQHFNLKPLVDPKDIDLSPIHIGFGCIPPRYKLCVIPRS

[2] = biological target: expressed cytochrome P450_2E1 in supersomes (Homo sapiens, UniProt P05181); experiment: Aldehyde oxidation to carboxylic acid by expressed human P450 2E1 supersomes; conditions: for NADPH-dependent oxidation of aldehyde by expressed 2E1: 100-120 μM aldehyde, 1.0 mM NADPH, 45 min, 37 °C; for effect on the rate of acid formation from trans-2-octenal: 1.0 mM added, 2E1 supersomes
Sequence of expressed cytochrome P450_2E1 in supersomes (P05181 whole entry): as above

[3] = biological target: T1, expressed 2A6 (supersomes) (Homo sapiens, UniProt P11509); experiment: Aldehyde oxidation to carboxylic acid by expressed human P450 2A6 supersomes; conditions: 100-120 μM aldehyde, 1.0 mM NADPH, 45 min, 37 °C
T1 sequence (P11509 1-494): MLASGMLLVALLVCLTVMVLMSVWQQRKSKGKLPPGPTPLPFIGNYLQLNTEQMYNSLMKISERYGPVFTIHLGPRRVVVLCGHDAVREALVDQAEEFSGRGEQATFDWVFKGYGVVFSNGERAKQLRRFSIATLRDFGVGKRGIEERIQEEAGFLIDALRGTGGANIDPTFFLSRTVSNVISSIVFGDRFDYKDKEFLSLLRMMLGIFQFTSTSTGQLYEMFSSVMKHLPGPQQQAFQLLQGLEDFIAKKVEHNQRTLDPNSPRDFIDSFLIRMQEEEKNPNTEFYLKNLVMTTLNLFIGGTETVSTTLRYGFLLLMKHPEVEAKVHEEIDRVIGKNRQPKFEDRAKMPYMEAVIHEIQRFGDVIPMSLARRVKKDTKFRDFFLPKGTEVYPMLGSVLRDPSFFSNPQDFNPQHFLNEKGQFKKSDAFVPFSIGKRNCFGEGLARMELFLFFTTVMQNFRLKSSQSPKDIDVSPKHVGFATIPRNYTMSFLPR

[4] = biological target: T2, human cytochrome P450_2A6 (Homo sapiens, UniProt P11509); experiment: Inhibition of P450 2A6
T2 sequence (P11509 1-494): T1 sequence (P11509 1-494)

[5] = KI for inhibition of 2A6, competitive model, coumarin substrate

Sequence of 2E1 (P05181 whole entry): as the sequence (P05181 whole entry) above

NADPH-dependent oxidation of aldehyde by expressed 2E1 [2]: effective in the oxidation
NADPH-dependent oxidation of aldehyde by expressed 2A6 [3]: no acid products
SMILES: CCCCCC/C=C/C=O [Nonyl Unsaturated, trans-2-nonenal]

Ki [4]: 25 ± 2 µM
SMILES: CCCCCCCC=O [Octyl Saturated]

NADPH-dependent oxidation of aldehyde by expressed 2E1 [2]: effective in the oxidation
NADPH-dependent oxidation of aldehyde by expressed 2A6 [3]: no acid products
SMILES: CCCCC/C=C/C=O [Octyl Unsaturated, trans-2-octenal]

Ki [4]: 126 ± 16 µM
SMILES: CCCCC=O [Pentyl Saturated]

Ki [4]: 1270 ± 150 µM
SMILES: CCC=CC=O [Pentyl Unsaturated]

Ki [4]: 103 ± 22 µM
SMILES: CCCCCCCC/C=C/C=O [Undecy Unsaturated]

effect on the rate of acid formation from trans-2-octenal [2]: no effect
SMILES: O=C1O[C@H]([C@@H](O)CO)C(O)=C1O [ascorbate, reference compound]

Ki [4, 5]: > 100 µM
Ki [1]: 18.8 µM and 15.7 µM
mode of inhibition of 2E1 ([1]; Michaelis-Menten model): reversible competitive inhibition
fold difference in 2E1 KI, branched versus linear 10-carbon aldehyde [1]: 5 fold
SMILES: CC(C)=CCCC(C)=CC=O [citral, 3,7-dimethyl 2,6-octadienal]

effect on the rate of acid formation from trans-2-octenal [2]: no effect
SMILES: N[C@@H](CCC(=O)N[C@@H](CS)C(=O)NCC(=O)O)C(=O)O [glutathione, reference compound]

Second part, the compound before the results:

SMILES: C=CCCCCCCCCC=O [11-undecylenic aldehyde]
loss of the activity of 2E1 after pre-incubation (2E1): ~ 50%

SMILES: CCCCCCCCCC=O [Decyl Saturated, decanal]
Ki [1]: 7 µM
fold difference in 2E1 KI, branched versus linear 10-carbon aldehyde [1]: about 8 fold

SMILES: CCCCCCC/C=C/C=O [Decyl Unsaturated, trans-2-decenal]
NADPH-dependent oxidation of aldehyde by expressed 2E1 [2]: effective in the oxidation
NADPH-dependent oxidation of aldehyde by expressed 2A6 [3]: no acid products

SMILES: CCCCCCC=O [Heptyl Saturated, heptanal]
Ki [4, 5]: 15.8 ± 1.1 µM

SMILES: CCCC/C=C/C=O [Heptyl Unsaturated, trans-2-heptenal]
NADPH-dependent oxidation of aldehyde by expressed 2E1 [2]: effective in the oxidation
NADPH-dependent oxidation of aldehyde by expressed 2A6 [3]: no acid products

SMILES: CCCCCC=O [Hexyl Saturated]
Ki [4]: 57 ± 7 µM

SMILES: CCC/C=C/C=O [Hexyl Unsaturated]
Ki [4]: 33 ± 3 µM

SMILES: CCCCCCCCC=O [Nonyl Saturated]
Ki [4]: 55 ± 6 µM

SMILES: CCCCCCCCCCCC(=O)O [lauric acid, reference compound]
reduction of the activity of 2E1 ([1]; concentration of 50 μM): 50%

Source: PMC4252262 (Chemico-biological interactions, 2014)
